# Legend:
# Assay type in all cases: physicochemical
# [1] = Particle size distribution by laser particle size analyzer Mastersizer 3000; details: dispersed in n-heptane
# Protocol: The particle size distribution of the APIs prepared in the examples of the present disclosure was determined by using a laser particle size analyzer Mastersizer 3000 (Malvern Panalytical, UK). Specifically, about 20 mg of the API (for example, API 5) prepared in the example of the present disclosure was taken, dispersed in 8 mL of n-heptane, sonicated for 10 seconds, added to a sample dispersion unit until the shading degree was in the range from 10% to 20%, and then measured. The stirring speed of the dispersion chamber was 2000 rpm, and the duration was 10 s.
# [2] = Stability of crystal form A, influencing factor and accelerated stability experiments
# From the text: In addition, the inventors also investigated the stability of the crystal form A under conditions of the influencing factor experiment and the accelerated stability experiment, and the results is as follows: […]
# [3] = Thermogravimetric analysis (TGA); details: 10° C./min
# Protocol: A thermogravimetric analyzer TA Discovery 55 (TA, US) was used. 2 mg to 5 mg of the sample was placed in an equilibrated open aluminum sample pan and automatically weighed in a TGA oven. The sample was heated to the final temperature at a rate of 10° C./min with a nitrogen purge rate of 60 mL/min at the sample and 40 mL/min at the balance.
# [4] = Dynamic vapor sorption (DVS) analysis
# Protocol: Dynamic vapor sorption analysis was performed using DVS Intrinsic (SMS, UK). The analysis adopted a gradient mode, the humidity change was 50%, 95%, 0%, and 50% in sequence, the humidity change of each gradient in the range from 0% to 90% was 10%, and the end point of the gradient was determined by dm/dt method. The end point of the gradient was determined in response to the dm/dt being less than 0.002% and maintained for 10 minutes.
structure (smiles),measurement,setting,value
Cn1cnc(Cn2c(=O)[nH]/c(=N\c3cc4cn(C)nc4cc3Cl)n(Cc3cc(F)c(F)cc3F)c2=O)n1 [API 12],Particle size D50 of API,[1],8.3 μm
same,Particle size D90 of API,[1],10.9 μm
Cn1cnc(Cn2c(=O)[nH]/c(=N\c3cc4cn(C)nc4cc3Cl)n(Cc3cc(F)c(F)cc3F)c2=O)n1 [API 9],Particle size D50 of API,[1],8.8 μm
same,Particle size D90 of API,[1],10.4 μm
Cn1cnc(Cn2c(=O)[nH]/c(=N\c3cc4cn(C)nc4cc3Cl)n(Cc3cc(F)c(F)cc3F)c2=O)n1 [API 8],Particle size D50 of API,[1],20.1 μm
same,Particle size D90 of API,[1],40.7 μm
Cn1cnc(Cn2c(=O)[nH]/c(=N\c3cc4cn(C)nc4cc3Cl)n(Cc3cc(F)c(F)cc3F)c2=O)n1 [API 4],Particle size D50 of API,[1],23.5 μm
same,Particle size D90 of API,[1],46.7 μm
Cn1cnc(Cn2c(=O)[nH]/c(=N\c3cc4cn(C)nc4cc3Cl)n(Cc3cc(F)c(F)cc3F)c2=O)n1 [API 15],Particle size D50 of API,[1],10.2 μm
same,Particle size D90 of API,[1],15.8 μm
Cn1cnc(Cn2c(=O)[nH]/c(=N\c3cc4cn(C)nc4cc3Cl)n(Cc3cc(F)c(F)cc3F)c2=O)n1 [API 16],Particle size D50 of API,[1],38.3 μm
same,Particle size D90 of API,[1],70.5 μm
Cn1cnc(Cn2c(=O)[nH]/c(=N\c3cc4cn(C)nc4cc3Cl)n(Cc3cc(F)c(F)cc3F)c2=O)n1 [API 13],Particle size D50 of API,[1],22.4 μm
same,Particle size D90 of API,[1],48.9 μm
Cn1cnc(Cn2c(=O)[nH]/c(=N\c3cc4cn(C)nc4cc3Cl)n(Cc3cc(F)c(F)cc3F)c2=O)n1 [API 11],Particle size D50 of API,[1],20.6 μm
same,Particle size D90 of API,[1],42.7 μm
Cn1cnc(Cn2c(=O)[nH]/c(=N\c3cc4cn(C)nc4cc3Cl)n(Cc3cc(F)c(F)cc3F)c2=O)n1 [API 7],Particle size D50 of API,[1],22.3 μm
same,Particle size D90 of API,[1],45.5 μm
"Cn1cnc(Cn2c(=O)[nH]/c(=N\c3cc4cn(C)nc4cc3Cl)n(Cc3cc(F)c(F)cc3F)c2=O)n1 [crystal form A, (6E)-6-[(6-chloro-2-methyl-2H-indazol-5-yl)imino]-3-[(1-methyl-1H-1,2,4-triazol-3-yl)methyl]-1-(2,4,5-trifluorobenzyl)-1,3,5-triazine-2,4-dione fumaric acid]","Stability (appearance, purity, dissociation, crystalline transformation)","[2]; 40° C. and 75% relative humidity (RH), within 2 months",stable
same,Stability (appearance and purity),"[2]; high temperature, high humidity, and light irradiation, within 30 days",stable
same,TGA decomposition temperature,[3]; nitrogen,higher than 240 °C
same,TGA weight loss,[3]; heated to 150° C.,basically no weight loss
same,Hygroscopicity,[4]; DVS,almost no hygroscopicity
same,"Crystal form stability, XRPD before and after DVS experiment",[4]; FIG. 3,"very stable, is not prone to crystalline transformation"
same,DVS weight loss,[4]; at 0% RH,0.02%
same,DVS weight gain,[4]; at 80% RH,0.06%
Cn1cnc(Cn2c(=O)[nH]/c(=N\c3cc4cn(C)nc4cc3Cl)n(Cc3cc(F)c(F)cc3F)c2=O)n1 [API 5],Particle size D50 of API,[1],18.6 μm
same,Particle size D90 of API,[1],34.2 μm
Cn1cnc(Cn2c(=O)[nH]/c(=N\c3cc4cn(C)nc4cc3Cl)n(Cc3cc(F)c(F)cc3F)c2=O)n1 [API 10],Particle size D50 of API,[1],22.1 μm
same,Particle size D90 of API,[1],43.4 μm
Cn1cnc(Cn2c(=O)[nH]/c(=N\c3cc4cn(C)nc4cc3Cl)n(Cc3cc(F)c(F)cc3F)c2=O)n1 [API 17],Particle size D50 of API,[1],35.4 μm
same,Particle size D90 of API,[1],65.7 μm
Cn1cnc(Cn2c(=O)[nH]/c(=N\c3cc4cn(C)nc4cc3Cl)n(Cc3cc(F)c(F)cc3F)c2=O)n1 [API 6],Particle size D50 of API,[1],8.9 μm
same,Particle size D90 of API,[1],15.6 μm
Cn1cnc(Cn2c(=O)[nH]/c(=N\c3cc4cn(C)nc4cc3Cl)n(Cc3cc(F)c(F)cc3F)c2=O)n1 [API 1],Particle size D50 of API,[1],28.9 μm
same,Particle size D90 of API,[1],58.6 μm
Cn1cnc(Cn2c(=O)[nH]/c(=N\c3cc4cn(C)nc4cc3Cl)n(Cc3cc(F)c(F)cc3F)c2=O)n1 [API 2],Particle size D50 of API,[1],20.3 μm
same,Particle size D90 of API,[1],40.1 μm
Cn1cnc(Cn2c(=O)[nH]/c(=N\c3cc4cn(C)nc4cc3Cl)n(Cc3cc(F)c(F)cc3F)c2=O)n1 [API 3],Particle size D50 of API,[1],8.4 μm
same,Particle size D90 of API,[1],10.2 μm
Cn1cnc(Cn2c(=O)[nH]/c(=N\c3cc4cn(C)nc4cc3Cl)n(Cc3cc(F)c(F)cc3F)c2=O)n1 [API 14],Particle size D50 of API,[1],20.5 μm
same,Particle size D90 of API,[1],41.3 μm
